This is an account of results in patent US8372865B2, “Dihydropyridone amides as P2X7 modulators” (Roche Palo Alto LLC, priority 2008, dated 2013).

Each structure is given as a SMILES string.

The assay concerns the target T1, P2X7 receptor (UniProt Q99572).
T1 sequence (Q99572 1-595): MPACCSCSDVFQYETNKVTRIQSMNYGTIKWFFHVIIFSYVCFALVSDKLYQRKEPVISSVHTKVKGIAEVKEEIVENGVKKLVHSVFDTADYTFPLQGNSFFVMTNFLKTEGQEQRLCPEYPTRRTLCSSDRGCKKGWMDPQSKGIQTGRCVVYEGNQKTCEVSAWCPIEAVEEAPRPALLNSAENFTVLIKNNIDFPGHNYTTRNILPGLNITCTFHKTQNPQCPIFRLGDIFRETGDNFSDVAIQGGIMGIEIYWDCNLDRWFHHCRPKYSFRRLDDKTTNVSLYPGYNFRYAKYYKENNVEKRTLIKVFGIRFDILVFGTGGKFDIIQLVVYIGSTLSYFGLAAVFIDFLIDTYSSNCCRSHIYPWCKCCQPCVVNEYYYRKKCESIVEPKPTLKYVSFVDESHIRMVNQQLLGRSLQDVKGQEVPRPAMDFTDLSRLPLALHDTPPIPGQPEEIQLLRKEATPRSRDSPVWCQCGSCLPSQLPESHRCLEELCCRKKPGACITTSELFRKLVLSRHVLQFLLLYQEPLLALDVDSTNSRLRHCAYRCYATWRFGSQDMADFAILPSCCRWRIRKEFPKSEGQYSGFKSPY
Briefly: pKi of Table 1 (assay not stated). The assay is classed as cell-based. How it is done:
Intracellular Calcium Flux (FLIPR) Assay
Stock solutions of compounds were prepared from powders as a 10 mM DMSO stock solution. These solutions were stored at RT during the two week period of these experiments to prevent freeze-thaw of the DMSO stocks. The DMSO stocks were added to the appropriate assay buffer at a concentration of 10 μM, and then diluted serially to the final concentrations that were tested. […] The aqueous solutions of compounds as well as ATP (Sigma A7699) and BzATP (Sigma B6396) were prepared fresh for each day of experiment.
1321N1 cells stably expressing the full length human P2X7 gene (1321N1-hP2X7) and HEK293 cells stably expressing the full length rat P2X7 gene (HEK293-rP2X7) were obtained from the Roche Cell Culture Facility. 1321N1-hP2X7 cells were grown in Dulbecco's Modified Eagle's Medium (DMEM) high glucose supplemented with 10% FBS and 250 μg/mL G418. HEK293-rP2X7 cells were grown in DMEM/F-12 supplemented with 10% FBS, 1 mM CaCl2, 2 mM MgCl2, 2 mM L-Glutamine and 500 μg/ml G418. Cells were split such that they never became>70% confluent.
On the day prior to the experiment, 1321N1-hP2X7 or HEK293-rP2X7 cells were released into suspension with calcium-free PBS+Versene and washed by centrifugation with calcium-free PBS to remove the Versene. Cells were resuspended in growth medium at a density of 2.5×10^5 cells/mL and seeded into black walled, clear bottom 96 well plates (50,000 cells/well) approximately 18 hr prior to intracellular calcium flux experiments.
On the day of the experiment, plates were washed with FLIPR buffer (calcium- and magnesium-free Hank's Balanced Salt Solution (HBSS) supplemented with 10 mM Hepes, 2.5 mM probenecid and 2 mM calcium chloride) using a BIO-TEK 96 channel plate washer and incubated with […] fluo-3 dye at 37° C. for one hr. The dye was then removed by plate washing and the cells were allowed to equilibrate for 20 min at room temperature with antagonist or vehicle (FLIPR buffer). Agonist (100 μM BzATP final concentration for hP2X7; 5 μM BzATP final concentration or rP2X7) was added online with the FLIPR and fluorescence measurements made at 1 sec intervals for 60 sec followed by 3 sec intervals for a further 4 min (5 min total). A final addition of 5 μM ionomycin was made and the maximal BzATP-evoked fluorescence normalized to the maximal ionomycin-evoked fluorescence.
Molecule `Cc1ccc2c(NC(=O)C3=CNC(=O)C[C@H]3c3ccc(F)cc3)c(C)ccc2n1` [Compound 49, (S)-4-(4-Fluoro-phenyl)-6-oxo-1,4,5,6-tetrahydro-pyridine-3-carboxylic acid (2,6-dimethyl-quinolin-5-yl)-amide] registered a pKi of 7.8567.
Molecule `CN1C=C(C(=O)Nc2cccc3c(=O)n(CCO)ccc23)[C@H](c2ccc(F)cc2)CC1=O` [Compound 50, (S)-4-(4-Fluoro-phenyl)-1-methyl-6-oxo-1,4,5,6-tetrahydro-pyridine-3-carboxylic acid [2-(2-hydroxy-ethyl)-1-oxo-1,2-dihydro-isoquinolin-5-yl]-amide] returned a negative logarithm of the Ki (pKi) of 7.04.
In the case of `Cc1ccc2c(=O)n(C)ccc2c1NC(=O)C1=CNC(=O)C[C@H]1c1ccc(F)cc1` [Compound 51, (S)-4-(4-Fluoro-phenyl)-6-oxo-1,4,5,6-tetrahydro-pyridine-3-carboxylic acid (2,6-dimethyl-1-oxo-1,2-dihydro-isoquinolin-5-yl)-amide] it was 7.4375.
In turn, `Cc1ccc2c(=O)n(C)ccc2c1NC(=O)C1=CN(C)C(=O)C[C@H]1c1ccc(F)cc1` [Compound 52, (S)-4-(4-Fluoro-phenyl)-1-methyl-6-oxo-1,4,5,6-tetrahydro-pyridine-3-carboxylic acid (2,6-dimethyl-1-oxo-1,2-dihydro-isoquinolin-5-yl)-amide] displayed a pKi of 7.45.
In the case of `Cc1ccc2c(C)nccc2c1NC(=O)C1=CN(C)C(=O)C[C@H]1c1ccc(F)cc1` [Compound 53, (S)-4-(4-Fluoro-phenyl)-1-methyl-6-oxo-1,4,5,6-tetrahydro-pyridine-3-carboxylic acid (1,6-dimethyl-isoquinolin-5-yl)-amide] it was 6.045; in that of `Cn1ccc2c(NC(=O)C3=CNC(=O)C[C@H]3c3ccc(F)cc3)cccc2c1=O` [Compound 58, (S)-4-(4-Fluoro-phenyl)-6-oxo-1,4,5,6-tetrahydro-pyridine-3-carboxylic acid (2-methyl-1-oxo-1,2-dihydro-isoquinolin-5-yl)-amide], 7.56.

Usually pKi stands for the negative decadic logarithm of the Ki, by convention in mol/L.
